Measured values reported in US20240180937A1, “CYTOKINE PRODUCTION SUPPRESSING COMPOSITION CONTAINING D-ALLOSE AS ACTIVE COMPONENT, AND METHOD OF TREATING OR PREVENTING DISEASE ASSOCIATED WITH CYTOKINE OVERPRODUCTION USING SAME” (NATIONAL UNIVERSITY CORPORATION KAGAWA UNIVERSITY, priority 2021, published 2024).

Tests used:
Format in all cases: cell-based, C57BL/6N mice
[1] = tested on: plasmacytoid dendritic cells (pDC); experiment: Cytokine production by plasmacytoid dendritic cells (spleen or bone marrow) after TLR7/TLR9 ligand stimulation, ELISA of culture supernatant; details: for IFN-α production accompanying stimulation of pDCs / IL-12 production accompanying stimulation of pDCs: stimulation with TLR7 ligand poly(U) or TLR9 ligand CpG DNA (D19 and 1668), sugar 0.2 w/v % in glucose-free medium
Description: CD317-positive cells were prepared by magnetic bead sorting (MACS) from spleen cells obtained from C57BL/6N mice (Clea Japan, Inc.), as plasmacytoid dendritic cells (pDC) (FIG. 1(A)). CD11c-positive cells in the CD317-negative cell fraction were then prepared using magnetic beads, as conventional dendritic cells (CDC) (FIG. 1(A)). CD317-positive cells were also prepared using magnetic beads from bone marrow cells obtained from C57BL/6N mice (Clea Japan, Inc.), as bone marrow pDCs (FIG. 1(B)).
The obtained pDCs and cDCs were inoculated into a 96-well plate using glucose-free PRMI1640 medium with addition of 10 v/v % FCS, 100 μM 2-mercaptoethanol, 50 μg/ml streptomycin and 50 units/ml penicillin G, after which a rare sugar (D-allose, D-allulose or L-allulose) or D-glucose or D-fructose, was added to a final concentration of 0.2 w/v %.
The pDCs were stimulated with non-stimulating medium and TLR7 ligand (polyuridylic acid at a final concentration of 2.5 μg/ml (Poly(U) (Sigma) mixed with Lipofectamine 2000 (Thermo Fisher Scientific)), 100 nM R848 (InvivoGen), or TLR9 ligand (synthetic DNA (3 μM of D19: 5′-GGtgcatcgatgcagGGGGg-3′ and 0.03 μM of 1668: 5′-[…]-3′ (where uppercase indicates phosphorothioate DNA and lowercase indicates phosphodiester DNA))), and the IFN-α in the culture supernatant after 20 to 24 hours was measured using ELISA by InvivoGen while the IL-12p40 was measured using ELISA by Biolegend.

[2] = tested on: intraperitoneal macrophages; experiment: TNF-α and nitric oxide production by intraperitoneal macrophages after LPS/IFN-γ stimulation; details: 100 ng/ml LPS and 5 ng/ml IFN-γ; sugar in the medium; supernatant after 20 to 24 hours; data not shown
Description: The obtained pDCs and cDCs were inoculated into a 96-well plate using glucose-free PRMI1640 medium with addition of 10 v/v % FCS, 100 μM 2-mercaptoethanol, 50 μg/ml streptomycin and 50 units/ml penicillin G, after which a rare sugar (D-allose, D-allulose or L-allulose) or D-glucose or D-fructose, was added to a final concentration of 0.2 w/v %. After administering 2 ml of 4 w/v % Brewer thioglycollate medium (Sigma) intraperitoneally to C57BL/6N mice, the intraperitoneal macrophages on the 3rd day were collected and used. After inoculation into the same medium as the DCs, stimulation was with 100 ng/ml of Lipopolysaccharide E. coli O111:B4 (Sigma) and 5 ng/ml of IFN-γ (Biolegend), the TNF-α in the culture supernatant after 20 to 24 hours was measured using ELISA by Biolegend and the nitric oxide was measured using a NO2/NO3 Assay Kit-C II (Colorimetric) (Griess Reagent Kit) (Dojindo Laboratories).

[3] = tested on: conventional dendritic cells (cDC); experiment: Cytokine production by spleen-derived conventional dendritic cells after stimulation, ELISA of culture supernatant
Description: CD317-positive cells were prepared by magnetic bead sorting (MACS) from spleen cells obtained from C57BL/6N mice (Clea Japan, Inc.), as plasmacytoid dendritic cells (pDC) (FIG. 1(A)). CD11c-positive cells in the CD317-negative cell fraction were then prepared using magnetic beads, as conventional dendritic cells (CDC) (FIG. 1(A)). CD317-positive cells were also prepared using magnetic beads from bone marrow cells obtained from C57BL/6N mice (Clea Japan, Inc.), as bone marrow pDCs (FIG. 1(B)). The obtained pDCs and cDCs were inoculated into a 96-well plate using glucose-free PRMI1640 medium with addition of 10 v/v % FCS, 100 μM 2-mercaptoethanol, 50 μg/ml streptomycin and 50 units/ml penicillin G, after which a rare sugar (D-allose, D-allulose or L-allulose) or D-glucose or D-fructose, was added to a final concentration of 0.2 w/v %. The cDCs were stimulated with non-stimulating medium, 100 nM of R848 and 1 μM of 1668, and the IL-12p40 in the culture supernatant after 20 to 24 hours was measured using ELISA by Biolegend.

[4] = supernatant after 20 to 24 hours
[5] = supernatant after 20 to 24 hours, IL-12p40 ELISA

Structure (SMILES)	IFN-α production by pDCs after low molecular weight TLR7 ligand stimulation ([1]; low molecular weight TLR7 ligands including R848 (100 nM), sugar 0.2 w/v %, supernatant after 20 to 24 hours)	IL-12 production by pDCs after low molecular weight TLR7 ligand stimulation ([1]; low molecular weight TLR7 ligands including R848 (100 nM), sugar 0.2 w/v %, supernatant after 20 to 24 hours, IL-12p40 ELISA)	IFN-α production accompanying stimulation of pDCs [1, 4]	IL-12 production accompanying stimulation of pDCs [1, 5]	pDC cytokine production after activation in medium containing D-allose ([1]; summary statement)	TNF-α production by macrophages upon lipopolysaccharide (LPS) stimulation [2]	nitric oxide production by macrophages upon lipopolysaccharide (LPS) stimulation [2]	IL-12 production by cDCs after CpG DNA (1668) stimulation ([3]; 1 μM 1668, sugar 0.2 w/v %, supernatant after 20 to 24 hours, IL-12p40 ELISA)	cDC cytokine production after activation in medium containing D-allose ([3]; summary statement)
O=C[C@H](O)[C@H](O)[C@H](O)[C@H](O)CO [D-allose]	not reduced	not reduced	notably attenuated	notably attenuated	lowered	not attenuated	not attenuated	not lowered	not lowered
O=C[C@H](O)[C@@H](O)[C@H](O)[C@H](O)CO [D-glucose]			not observed	not observed					
O=C(CO)[C@@H](O)[C@H](O)[C@H](O)CO [D-fructose]			not observed	not observed		not attenuated	not attenuated		
O=C(CO)[C@H](O)[C@H](O)[C@H](O)CO [D-allulose]			not observed	not observed		not attenuated	not attenuated		
O=C(CO)[C@@H](O)[C@@H](O)[C@@H](O)CO [L-allulose]			not observed	not observed		not attenuated	not attenuated		
